Common to all, as to assay type: cell-based
In test [1] the test system is LU-99. As to the kind of experiment: CellTiterGlo Cell Proliferation Assay, LU-99. To be noted: Homo sapiens, KRas G12C, Lung, 96 hr. The method, then: (§1) A panel of tumor cell lines harboring KRas G12C or other KRas mutations are collected (Table 6). All cell lines are from ATCC or other sources indicated.
(§2) Typically cells are cultured in RPMI1640 or Dulbecco's modified Eagle's medium (DMEM, GIBCO) supplemented with 10% FBS (GIBCO, Invitrogen). For 2D culture cells (4×10^3/well) maintained in growth medium described above, are plated onto 96 well tissue culture plates Corning® Cat. 3603) a day before the treatment. For 3D culture 8000 cells/well are seeded onto 96 well ultra-low attachment tissue culture plates (Corning, #3474). The cells are treated compound for 96 hr, and then are analyzed for viability using the CellTiterGlo® Luminescent Cell Viability Assay® (Promega #G7572 for 2D and Promega #G9683 for 3D cultures) according to manufacturer's instructions and an EnVision™ plate reader. Nonlinear regression and sigmoidal dose-response curves are used to calculate the half maximal inhibitory concentration (IC50) with GraphPad Prism 4® software.
(In general: ATP-based viability assays read luminescence as a measure of living cells.)

Test [2] relates to D122-96. As to the kind of experiment: CellTiterGlo Cell Proliferation Assay, D122-96. The settings on record: KRas G12C, Lung (mouse), 96 hr. How it is done: as §1, §2
For test [3], the system named is H23. As to the kind of experiment: Combination 4 day growth assay (Cell TiterGlo), H23. To be noted: Homo sapiens, NCI-H23, 96 h, single treatment, read-out: Absolute IC50. The method, then:
(§3) Cell lines for this study are obtained from ATCC and grown under ATCC recommended conditions, except for LXFA-983L, which is obtained from Oncotest/Charles Rivers Laboratories, Wilmington, Mass. and D122-96, which is obtained from L. Eisenbach (Weizman Institute of Science, Rehovot, Israel)—both grown under recommended conditions. […] The proliferation assay is performed as a 4 day growth assay using Cell TiterGlo® as the readout. Briefly, cells are plated in 96-well cell culture plates and allowed to adhere overnight at 37° C. The following day, cells are treated with compounds, either single treatments or combination treatments. First, the testing compounds are serially diluted in DMSO, followed by dilution into media as a 5× concentration with 1% DMSO, and finally added to cells in media to dilute to 1×. The cells are incubated at 37° C. for 4 more days. At the end of the incubation period, Cell TiterGlo® reagent is mixed and added to the wells. After 10 minutes, the luminescence is read by a Perkin Elmer Envision instrument. Absolute IC50 values generated by a 4-parameter logistics model for the single and combination treatments are generated, followed by combination indexes for each combination treatment and cell line. The combination IC50 values are adjusted based on the total concentration of each compound when added together. […] The combination index (CI) measures the degree to which the potency of a combination therapy differs from the expected-if-additive potency and is based on the Loewe definition of additivity.
(§4) [formula] Where • CAy and CBy are the concentrations of therapies A and B that produce an effect, y, when given in combination • ICAy and ICBy are the concentrations of A and B that produce an effect, y, when given individually The biological interpretation of the combination index is as follows: synergistic if the combination index <0.5, additive if the combination index is between 0.5 and 2, and antagonistic if the combination index is >2.

The subject of test [4] is LXFA-983L. As to the kind of experiment: CellTiterGlo Cell Proliferation Assay, LXFA-983L. The settings on record: KRas G12C, Lung, 96 hr. The method, then:
as §1, §2

The test system of test [5] is H358. As to the kind of experiment: Combination 4 day growth assay (Cell TiterGlo), H358. The settings on record: Homo sapiens, NCI-H358, 96 h, single treatment, read-out: Absolute IC50. The method, then:
as §3, §4

For test [6], the system named is SW1463. As to the kind of experiment: Combination 4 day growth assay (Cell TiterGlo), SW1463. To be noted: Homo sapiens, SW1463, 96 h, single treatment, read-out: Absolute IC50. The method, then: as §3, §4
The mark [7] stands for this setting: read-out: IC50 (μM) in 2 D cell proliferation.
Where [8] appears, read: read-out: IC50 (μM) in 3 D spheroid cell proliferation.

Like-named read-outs stand apart in the source and are kept apart here.

On to `C=CC(=O)N1CCN(c2ncnc3c(F)c(-c4ccc(F)c5sc(N)nc45)c(Cl)cc23)CC1` [Example 1, 1-{4-[7-(2-Amino-7-fluoro-1,3-benzothiazol-4-yl)-6-chloro-8-fluoroquinazolin-4-yl]piperazin-1-yl}prop-2-en-1-one], for which the IC50 is 1.57 µM in test [1] (setting [7]); 0.659 µM in test [1] (setting [8]); 0.126 µM in test [2] (setting [7]); 0.069 µM in test [2] (setting [8]); 235 nM in test [3]; 1.34 µM in test [4] (setting [7]). The IC50 in test [4] (setting [8]) stood at 0.05 µM; in test [5], 41.9 nM; in test [6], 14.1 nM.

The values are drawn from US10968214B2, “KRas G12C inhibitors” (Eli Lilly and Company, priority 2018, dated 2021).
